The values below come from patent publication US6693123B2 (University of Pittsburgh, priority 1995, dated 2004).

Counter-ions that a name gives are not always drawn. Where only a bound is given, the exact number is not on record here.

The test system of data set [1] is geranylgeranyltransferase I. Put plainly: Inhibition of geranylgeranyltransferase I (glass fiber filter binding assay, H-Ras-CVLL, 3H-GGPP). It is filed as biochemical, bovine. Particulars: for Activity: % inhibition at 1 × 10^−6 M: compound at 1 × 10^−6 M (Table 5); for Activity: % inhibition at 1 × 10^−7 M: compound at 1 × 10^−7 M (Table 5); for Activity: % inhibition at 1 × 10^−5 M: compound at 1 × 10^−5 M (Table 5). An excerpt:
The ability of the compounds of the invention to inhibit protein farnesyltransferase or protein geranylgeranyltransferase can be measured according to the method of Moores, et al., J. Biol. Chem. 266: 14603 (1991) or the method of Vogt, et al., J. Biol. Chem. 270:660-664 (1995). In addition, procedures for determination of the inhibition of farnesylation of the oncogene protein Ras are described by Goldstein, et al., J. Biol. Chem., 266:15575-15578 (1991) and by Singh in U.S. Pat. No. 5,245,061.
Additional methods for the measurement of in vitro inhibition of protein prenylation (i.e., inhibition of farnesyltransferase or geranylgeranyltransferase) are described below.
Assays are performed using the glass fiber filter binding assay procedure with either rabbit reticulocyte lysate or Frase or GGTase I fractions isolated from bovine brains using a combination of hydrophobic and DEAE column chromatography procedures. Protein substrates are purchased from Panvera Corporation (H-ras for FTase, H-ras-CVLL for GGTase I). Tritium labeled prenyl lipid substrates (FPP or GGPP) are obtained from Amersham Life Science.
^3H-geranylgeranyldiphosphate (final concentration 0.5 μM), H-Ras-CVLL (final concentration 5.0 μM) and the test compound (various final concentrations from a stock solution in 1:1 DMSO/water; final concentration DMSO <2%) were mixed in buffer (50 mM Tris-HCl (pH 7.2), 30 mM MgCl2, 20 mM KCl, 10 μM ZnCl2, 5 mM DTT, 0.01% Triton X-100) to give a final volume of 50 μL. The mixture was brought to 37° C., treated with enzyme, and incubated for 30 minutes. 1 mL of 1 M HCl/ethanol was added to stop the reaction, and the mixture was allowed to stand for 15 minutes at room temperature then diluted with 2 mL of ethanol. The reaction mixture was filtered through a 2.5 cm glass microfiber filter from Whatman and washed with four 2 mL portions of ethanol. The glass filter was transferred to a scintillation vial, and 5 mL scintillation fluid was added. The radioisotope retained on the glass fiber filter was counted to reflect the activity of the enzymes. The IC50 value was calculated by measuring the activity of the enzyme over a suitable range of inhibitor concentrations.

Data set [2] deals with T1, Rat brain protein farnesyltransferase (Rattus norvegicus, UniProt Q02293+Q04631).
T1 construct: The enzyme is purified according to Reiss, Y., et al., Cell, 62: 81-88 (1990), utilizing steps one through three; from tissue; host or cells: rat brain
The data set is described as follows: In vitro inhibition of protein farnesyltransferase, Amersham scintillation proximity assay with biotin-K Ras B fragment. The data set is classed as biochemical. Conditions: for inhibition at 1 µM / inhibition at 10 µM: Inhibition of farnesyltransferase; for inhibition at 1 µM: compound at 1 × 10^−6 M (Table 2), read-out: % inhibition at 1 × 10^−6 M; for inhibition at 10 µM: compound at 1 × 10^−5 M (Table 1). On the technique in general: Scintillation proximity formats need no separation of bound from free tracer.

In the case of `CC(C)C[C@H](NC(=O)c1ccc(NCc2c[nH]cn2)cc1-c1ccccc1)C(=O)O` [Example 967, N-[4-(Imidazol-4-ylmethylamino)-2-phenylbenzoyl]leucine], the “Activity: % inhibition at 1 × 10^−6 M” value in data set [1] is reported as >50% inhibition at 1 × 10^−6 M.
For `CSCC[C@H](NC(=O)c1ccc(COc2cccnc2)cc1Oc1ccccc1)C(=O)O` [Example 157, [4-(3-Pyridyloxymethylene)-2-phenoxybenzoyl]methionine], the melting point amounted to 195 °C. Further, in data set [2], the inhibition at 1 µM worked out at 92%.
On to `CC(C)C[C@H](NC(=O)c1ccc(CNCc2c[nH]cn2)cc1-c1cccc2ccccc12)C(=O)O` [Example 955, N-[4-(Imidazol-4-ylmethylaminomethyl)-2-naphth-1-ylbenzoyl]leucine], for which the “Activity: % inhibition at 1 × 10^−7 M” value in data set [1] is >50% inhibition at 1 × 10^−7 M. In data set [2], this compound came in with an inhibition at 10 µM of 50%.
In the case of `CC(C)C[C@H](NC(=O)c1ccc(NCc2ncc[nH]2)cc1-c1ccccc1)C(=O)O` [Example 953, N-[4-(Imidazol-2-ylmethylamino)-2-phenylbenzoyl]leucine], the melting point is 156 to 160 °C. Moreover, the “Activity: % inhibition at 1 × 10^−6 M” value in data set [1] is reported as >50% inhibition at 1 × 10^−6 M.
For the compound `CC(C)C[C@H](NC(=O)c1ccc(OCCn2ccnc2)cc1-c1ccccc1)C(=O)O` [Example 964, N-[4-(2-Imidazol-1-ylethoxy)-2-phenylbenzoyl]leucine], in data set [1], the “Activity: % inhibition at 1 × 10^−6 M” value is recorded as >50% inhibition at 1 × 10^−6 M. Further, the inhibition at 1 µM in data set [2] was over 50%.
Regarding `Cc1ccccc1-c1cc(NCc2c[nH]cn2)ccc1C(=O)N[C@@H](CC(C)C)C(=O)O` [Example 962, N-[4-(Imidazol-4-ylmethylamino)-2-(2-methylphenyl)benzoyl]leucine Hydrochloride], the “Activity: % inhibition at 1 × 10^−7 M” value in data set [1] is >50% inhibition at 1 × 10^−7 M. The inhibition at 1 µM in data set [2] was over 50%.
In the case of `O=C(N[C@@H](CC1CCCCC1)C(=O)O)c1ccc(NCc2c[nH]cn2)cc1-c1cccc2ccccc12` [Example 974, N-[4-(Imidazol-4-ylmethylamino)-2-naphth-1-ylbenzoyl]cyclohexyalanine], the “Activity: % inhibition at 1 × 10^−5 M” value in data set [1] is recorded as >50% inhibition at 1 × 10^−5 M. In addition, in data set [2], the inhibition at 10 µM was over 50%.
Take `Cc1cc(C)cc(-c2cc(NCc3cnc[nH]3)ccc2C(=O)N[C@@H](CC(C)C)C(=O)O)c1` [Example 399]: the “Activity: % inhibition at 1 × 10^−6 M” value in data set [1] is reported as >50% inhibition at 1 × 10^−6 M. The inhibition at 1 µM in data set [2] is over 50%.
For `CC(C)C[C@H](NC(=O)c1ccc(NCc2ncc[nH]2)cc1-c1cccc2ccccc12)C(=O)O` [Example 966, N-[4-(Imidazol-2-ylmethylamino)-2-naphth-1-ylbenzoyl]leucine], the “Activity: % inhibition at 1 × 10^−6 M” value in data set [1] was >50% inhibition at 1 × 10^−6 M.
As for `CC(C)C[C@H](NC(=O)c1ccc(NCc2ccncc2)cc1-c1cccc2ccccc12)C(=O)O` [Example 969, N-[4-(Pyrid-4-ylmethylamino)-2-naphth-1-ylbenzoyl]leucine], in data set [1], the “Activity: % inhibition at 1 × 10^−5 M” value is >50% inhibition at 1 × 10^−5 M.
Take `CSCC[C@H](NC(=O)c1ccc(CCc2cncc3ccccc23)cc1-c1ccccc1C)C(=O)O` [Example 492, N-[4-(2-Isoquinolin-4-ylethyl)-2-(2-methylphenyl)benzoyl]methionine Lithium Salt]: the inhibition at 0.1 µM in data set [2] (read-out: % inhibition at 1 × 10^−7 M) was found to be 95%.
For `COC(=O)[C@H](CCSC)NC(=O)c1ccc(CNc2cccnc2)cc1-c1ccccc1` [Example 226, [4-(Pyrid-3-ylaminomethyl)-2-phenylbenzoyl]methionine Methyl Ester Hydrochloride], the inhibition at 1 µM in data set [2] worked out at 23%.
Still for that read-out and setting: under `COC(=O)[C@H](CCSC)NC(=O)c1ccc(NCc2cccnc2)cc1-c1ccccc1` [Example 201, [4-(3-Pyridylmethylamino)-2-phenylbenzoyl]methionine Methyl Ester] stands 63%; under `CSCC[C@H](NC(=O)c1ccc(CNc2ccncc2)cc1-c1ccccc1)C(=O)O` [Example 161, [4-(4-Pyridylaminomethyl)-2-phenylbenzoyl]methionine], 54%; under `COC(=O)[C@H](CCSC)NC(=O)c1ccc(NC(=O)c2cccnc2)cc1-c1ccccc1C` [Example 300, [4-(3-Pyridylcarbonylamino)-2-(2-methylphenyl)benzoyl]methionine Methyl Ester], 22%.

In general, melting point refers to the temperature, or range, at which the solid turns liquid. Usually inhibition stands for the percentage by which the read-out fell short of the control.
